Source: PubChem BioAssay (NCI)
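Abbreviation: GI50, concentration required for 50% inhibition of growth. TGI marks complete inhibition of growth.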

What was measured:
Experiment in all cases: NCI-60 cell line screen, 384-well format
SNB-75 CNS = test system: SNB-75 CNS
786-0 renal = test system: 786-0 renal
SNB-19 CNS = test system: SNB-19 CNS
EKVX NSCLC = test system: EKVX NSCLC
UACC-62 melanoma = test system: UACC-62 melanoma
PC-3 prostate = test system: PC-3 prostate
MCF7 breast = test system: MCF7 breast
TK-10 renal = test system: TK-10 renal
SK-OV-3 ovarian = test system: SK-OV-3 ovarian
A498 renal = test system: A498 renal
ACHN renal = test system: ACHN renal
MDA-MB-435 melanoma = test system: MDA-MB-435 melanoma
RPMI-8226 leukemia = test system: RPMI-8226 leukemia
MALME-3M melanoma = test system: MALME-3M melanoma
MOLT-4 leukemia = test system: MOLT-4 leukemia
NCI-H460 NSCLC = test system: NCI-H460 NSCLC
HS 578T breast = test system: HS 578T breast
IGROV1 ovarian = test system: IGROV1 ovarian
CCRF-CEM leukemia = test system: CCRF-CEM leukemia
U251 glioblastoma = test system: U251 glioblastoma
SF-539 CNS = test system: SF-539 CNS
SF-268 CNS = test system: SF-268 CNS
KM12 colon = test system: KM12 colon
HCC-2998 colon = test system: HCC-2998 colon
MDA-MB-231 breast = test system: MDA-MB-231 breast
BT-549 breast = test system: BT-549 breast
OVCAR-4 ovarian = test system: OVCAR-4 ovarian
T-47D breast = test system: T-47D breast
OVCAR-5 ovarian = test system: OVCAR-5 ovarian
MDA-MB-468 breast = test system: MDA-MB-468 breast
HOP-62 NSCLC = test system: HOP-62 NSCLC
OVCAR-8 ovarian = test system: OVCAR-8 ovarian
OVCAR-3 ovarian = test system: OVCAR-3 ovarian
SN12C renal = test system: SN12C renal
UACC-257 melanoma = test system: UACC-257 melanoma
NCI/ADR-RES ovarian = test system: NCI/ADR-RES ovarian
CAKI-1 renal = test system: CAKI-1 renal
A549 NSCLC = test system: A549 NSCLC
SW-620 colon = test system: SW-620 colon
SK-MEL-2 melanoma = test system: SK-MEL-2 melanoma
RXF 393 renal = test system: RXF 393 renal
SF-295 CNS = test system: SF-295 CNS
NCI-H23 lung = test system: NCI-H23 lung
HOP-92 NSCLC = test system: HOP-92 NSCLC
NCI-H522 lung = test system: NCI-H522 lung
SK-MEL-28 melanoma = test system: SK-MEL-28 melanoma
HT29 colon = test system: HT29 colon
SK-MEL-5 melanoma = test system: SK-MEL-5 melanoma
NCI-H226 lung = test system: NCI-H226 lung
HCT-15 colon = test system: HCT-15 colon
SR leukemia = test system: SR leukemia
NCI-H322M lung = test system: NCI-H322M lung
COLO 205 colon = test system: COLO 205 colon
M14 melanoma = test system: M14 melanoma
HL-60(TB) leukemia = test system: HL-60(TB) leukemia
DU-145 prostate = test system: DU-145 prostate

NC(=O)c1ccc(I)c([N+](=O)[O-])c1
GI50 (SNB-75 CNS): 21.4 µM | TGI (SNB-75 CNS): > 100 µM | GI50 (786-0 renal): > 100 µM | TGI (786-0 renal): > 100 µM | GI50 (SNB-19 CNS): > 100 µM | TGI (SNB-19 CNS): > 100 µM | GI50 (EKVX NSCLC): 19.4 µM | TGI (EKVX NSCLC): 35.2 µM | GI50 (UACC-62 melanoma): 39 µM | TGI (UACC-62 melanoma): > 100 µM | GI50 (PC-3 prostate): > 100 µM | TGI (PC-3 prostate): > 100 µM | GI50 (MCF7 breast): > 100 µM | TGI (MCF7 breast): > 100 µM | GI50 (TK-10 renal): > 100 µM | TGI (TK-10 renal): > 100 µM | GI50 (SK-OV-3 ovarian): 68.7 µM | TGI (SK-OV-3 ovarian): > 100 µM | GI50 (A498 renal): 91.6 µM | TGI (A498 renal): > 100 µM | GI50 (ACHN renal): > 100 µM | TGI (ACHN renal): > 100 µM | GI50 (MDA-MB-435 melanoma): > 100 µM | TGI (MDA-MB-435 melanoma): > 100 µM | GI50 (RPMI-8226 leukemia): 33 µM | TGI (RPMI-8226 leukemia): 78.9 µM | GI50 (MALME-3M melanoma): 40.6 µM | TGI (MALME-3M melanoma): > 100 µM | GI50 (MOLT-4 leukemia): 20.5 µM | TGI (MOLT-4 leukemia): 38.8 µM | GI50 (NCI-H460 NSCLC): 78.5 µM | TGI (NCI-H460 NSCLC): > 100 µM | GI50 (HS 578T breast): 32.4 µM | TGI (HS 578T breast): > 100 µM | GI50 (IGROV1 ovarian): 97.7 µM | TGI (IGROV1 ovarian): > 100 µM | GI50 (CCRF-CEM leukemia): 21.4 µM | TGI (CCRF-CEM leukemia): 45.3 µM | GI50 (U251 glioblastoma): 53.1 µM | TGI (U251 glioblastoma): > 100 µM | GI50 (SF-539 CNS): > 100 µM | TGI (SF-539 CNS): > 100 µM | GI50 (SF-268 CNS): > 100 µM | TGI (SF-268 CNS): > 100 µM | GI50 (KM12 colon): 57.4 µM | TGI (KM12 colon): > 100 µM | GI50 (HCC-2998 colon): 28.2 µM | TGI (HCC-2998 colon): 56.2 µM | GI50 (MDA-MB-231 breast): 70.2 µM | TGI (MDA-MB-231 breast): > 100 µM | GI50 (BT-549 breast): 71.1 µM | TGI (BT-549 breast): > 100 µM | GI50 (OVCAR-4 ovarian): 17.9 µM | TGI (OVCAR-4 ovarian): 31.9 µM | GI50 (T-47D breast): 21 µM | TGI (T-47D breast): 38.1 µM | GI50 (OVCAR-5 ovarian): 21 µM | TGI (OVCAR-5 ovarian): 39.9 µM | GI50 (MDA-MB-468 breast): 10 µM | TGI (MDA-MB-468 breast): 23.3 µM | GI50 (HOP-62 NSCLC): 17.9 µM | TGI (HOP-62 NSCLC): 36.7 µM | GI50 (OVCAR-8 ovarian): > 100 µM | TGI (OVCAR-8 ovarian): > 100 µM | GI50 (OVCAR-3 ovarian): 23.6 µM | TGI (OVCAR-3 ovarian): 58.4 µM | GI50 (SN12C renal): 62.7 µM | TGI (SN12C renal): > 100 µM | GI50 (UACC-257 melanoma): 39.8 µM | TGI (UACC-257 melanoma): > 100 µM | GI50 (NCI/ADR-RES ovarian): > 100 µM | TGI (NCI/ADR-RES ovarian): > 100 µM | GI50 (CAKI-1 renal): 20.6 µM | TGI (CAKI-1 renal): 36.1 µM | GI50 (A549 NSCLC): > 100 µM | TGI (A549 NSCLC): > 100 µM | GI50 (SW-620 colon): > 100 µM | TGI (SW-620 colon): > 100 µM | GI50 (SK-MEL-2 melanoma): 26.8 µM | TGI (SK-MEL-2 melanoma): 72.8 µM | GI50 (RXF 393 renal): 21.4 µM | TGI (RXF 393 renal): 36.3 µM | GI50 (SF-295 CNS): > 100 µM | TGI (SF-295 CNS): > 100 µM | GI50 (NCI-H23 lung): 24.3 µM | TGI (NCI-H23 lung): 52.5 µM | GI50 (HOP-92 NSCLC): 21.7 µM | TGI (HOP-92 NSCLC): 42.8 µM | GI50 (NCI-H522 lung): 15.4 µM | TGI (NCI-H522 lung): 30.1 µM | GI50 (SK-MEL-28 melanoma): 44.3 µM | TGI (SK-MEL-28 melanoma): > 100 µM | GI50 (HT29 colon): 44 µM | TGI (HT29 colon): > 100 µM | GI50 (SK-MEL-5 melanoma): 25.2 µM | TGI (SK-MEL-5 melanoma): 89.3 µM | GI50 (NCI-H226 lung): 53.4 µM | TGI (NCI-H226 lung): > 100 µM | GI50 (HCT-15 colon): 44.1 µM | TGI (HCT-15 colon): > 100 µM | GI50 (SR leukemia): 25 µM | TGI (SR leukemia): 57.3 µM | GI50 (NCI-H322M lung): 33 µM | TGI (NCI-H322M lung): 95.7 µM | GI50 (COLO 205 colon): > 100 µM | TGI (COLO 205 colon): > 100 µM | GI50 (M14 melanoma): 31 µM | TGI (M14 melanoma): > 100 µM | GI50 (HL-60(TB) leukemia): 18 µM | TGI (HL-60(TB) leukemia): 32.1 µM | GI50 (DU-145 prostate): > 100 µM | TGI (DU-145 prostate): > 100 µM
